Target: T1, SRβ (30-kD β-subunit of the SRP receptor) in SR liposomes (Canis lupus, UniProt A0A8I3Q3L6)
T1 sequence (A0A8I3Q3L6 1-271): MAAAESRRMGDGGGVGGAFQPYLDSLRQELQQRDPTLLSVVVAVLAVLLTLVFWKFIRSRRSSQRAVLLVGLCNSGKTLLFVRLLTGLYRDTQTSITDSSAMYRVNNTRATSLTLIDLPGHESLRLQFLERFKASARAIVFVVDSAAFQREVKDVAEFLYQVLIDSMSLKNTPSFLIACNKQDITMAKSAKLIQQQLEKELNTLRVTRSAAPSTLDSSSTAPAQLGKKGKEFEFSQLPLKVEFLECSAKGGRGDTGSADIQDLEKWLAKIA
T1 sequence (P06625 1-638 partner): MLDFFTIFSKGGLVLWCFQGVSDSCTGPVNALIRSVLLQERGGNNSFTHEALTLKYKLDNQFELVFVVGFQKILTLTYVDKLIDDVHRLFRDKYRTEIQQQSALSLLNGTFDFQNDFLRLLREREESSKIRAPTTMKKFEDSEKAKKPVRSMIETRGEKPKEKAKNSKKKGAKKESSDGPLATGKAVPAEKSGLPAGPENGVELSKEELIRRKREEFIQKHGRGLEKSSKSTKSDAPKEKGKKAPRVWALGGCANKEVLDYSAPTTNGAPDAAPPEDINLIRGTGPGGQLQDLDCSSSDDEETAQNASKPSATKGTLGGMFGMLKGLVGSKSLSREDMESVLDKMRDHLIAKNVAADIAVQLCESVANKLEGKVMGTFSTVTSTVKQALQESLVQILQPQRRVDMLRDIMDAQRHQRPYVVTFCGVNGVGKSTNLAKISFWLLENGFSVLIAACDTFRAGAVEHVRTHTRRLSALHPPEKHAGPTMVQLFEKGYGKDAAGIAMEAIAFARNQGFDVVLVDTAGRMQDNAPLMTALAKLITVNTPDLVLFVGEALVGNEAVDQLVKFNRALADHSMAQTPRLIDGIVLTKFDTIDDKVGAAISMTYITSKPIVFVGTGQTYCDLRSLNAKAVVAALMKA
Test: UV cross-linking of alpha-[…]GTP, saturation, SDS-PAGE and PhosphorImaging
Assay type: binding

Kd: 0.02 µM
Compound: Nc1nc2c(ncn2[C@@H]2O[C@H](COP(=O)(O)OP(=O)(O)OP(=O)(O)O)[C@@H](O)[C@H]2O)c(=O)[nH]1 [GTP]

— article PMC2156146 (The Journal of Cell Biology, 1999)
